Assay results taken from patent US10457655B2, “Compounds and compositions for inhibition of FASN” (FORMA Therapeutics, Inc., priority 2013, dated 2019).
Where two headings read alike, the source gives them in different places.

How the values were obtained:
FASN enzyme = FASN enzyme (Homo sapiens, UniProt P49327); assay: Enzymatic Assay for FASN Inhibitors; type: biochemical
Summary of the method: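 40 nM FASN preincubated with compound 60 min at 25° C in HEPES pH 7.3 buffer with 0.04% Triton X-100. Then 20 μM acetyl-CoA, 60 μM malonyl-CoA and 100 μM NADPH added for 90 min, quenched with CPM thiol probe; fluorescence 360/530 nm, IC50 by four-parameter fit.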

PC3 cells = assay: Cell Proliferation Assays for FASN Inhibitors (PC3 cells, MTT); type: cell-based; settings: Homo sapiens, PC-3, 96 h
Description: The effects of the FASN inhibitors on cultured cancer cell proliferation were studies with cell proliferation assays. PC3 cells were maintained at standard culture media (F12K media supplemented with 10% fetal bovine serum, 1×MEM nonessential amino acid and 1× penicillin/streptomycin). 2000-3000 cells/100 μL/well was seeded in a 96-well clear culture plate. The cells were incubated overnight in 5% CO2 at 37° C. for attachment. Cell media were removed and replaced with F12K media containing 10% lipid reduced serum and compound. The final DMSO concentration is 0.1%. The cells were maintained in 5% CO2 at 37° C. for 4 days. The viability of cells was determined by MTT assays. The IC50 of a given compound was calculated by fitting the dose response curve with a four parameter logistic equation.

[1] = read-out: IC50 (uM) < 0.5, 10% lipid reduced serum, 4 days, Table 3-1
[2] = read-out: IC50 (uM) ≥ 0.5, 10% lipid reduced serum, 4 days, Table 3-2

FASN enzyme, sequence (P49327 whole entry): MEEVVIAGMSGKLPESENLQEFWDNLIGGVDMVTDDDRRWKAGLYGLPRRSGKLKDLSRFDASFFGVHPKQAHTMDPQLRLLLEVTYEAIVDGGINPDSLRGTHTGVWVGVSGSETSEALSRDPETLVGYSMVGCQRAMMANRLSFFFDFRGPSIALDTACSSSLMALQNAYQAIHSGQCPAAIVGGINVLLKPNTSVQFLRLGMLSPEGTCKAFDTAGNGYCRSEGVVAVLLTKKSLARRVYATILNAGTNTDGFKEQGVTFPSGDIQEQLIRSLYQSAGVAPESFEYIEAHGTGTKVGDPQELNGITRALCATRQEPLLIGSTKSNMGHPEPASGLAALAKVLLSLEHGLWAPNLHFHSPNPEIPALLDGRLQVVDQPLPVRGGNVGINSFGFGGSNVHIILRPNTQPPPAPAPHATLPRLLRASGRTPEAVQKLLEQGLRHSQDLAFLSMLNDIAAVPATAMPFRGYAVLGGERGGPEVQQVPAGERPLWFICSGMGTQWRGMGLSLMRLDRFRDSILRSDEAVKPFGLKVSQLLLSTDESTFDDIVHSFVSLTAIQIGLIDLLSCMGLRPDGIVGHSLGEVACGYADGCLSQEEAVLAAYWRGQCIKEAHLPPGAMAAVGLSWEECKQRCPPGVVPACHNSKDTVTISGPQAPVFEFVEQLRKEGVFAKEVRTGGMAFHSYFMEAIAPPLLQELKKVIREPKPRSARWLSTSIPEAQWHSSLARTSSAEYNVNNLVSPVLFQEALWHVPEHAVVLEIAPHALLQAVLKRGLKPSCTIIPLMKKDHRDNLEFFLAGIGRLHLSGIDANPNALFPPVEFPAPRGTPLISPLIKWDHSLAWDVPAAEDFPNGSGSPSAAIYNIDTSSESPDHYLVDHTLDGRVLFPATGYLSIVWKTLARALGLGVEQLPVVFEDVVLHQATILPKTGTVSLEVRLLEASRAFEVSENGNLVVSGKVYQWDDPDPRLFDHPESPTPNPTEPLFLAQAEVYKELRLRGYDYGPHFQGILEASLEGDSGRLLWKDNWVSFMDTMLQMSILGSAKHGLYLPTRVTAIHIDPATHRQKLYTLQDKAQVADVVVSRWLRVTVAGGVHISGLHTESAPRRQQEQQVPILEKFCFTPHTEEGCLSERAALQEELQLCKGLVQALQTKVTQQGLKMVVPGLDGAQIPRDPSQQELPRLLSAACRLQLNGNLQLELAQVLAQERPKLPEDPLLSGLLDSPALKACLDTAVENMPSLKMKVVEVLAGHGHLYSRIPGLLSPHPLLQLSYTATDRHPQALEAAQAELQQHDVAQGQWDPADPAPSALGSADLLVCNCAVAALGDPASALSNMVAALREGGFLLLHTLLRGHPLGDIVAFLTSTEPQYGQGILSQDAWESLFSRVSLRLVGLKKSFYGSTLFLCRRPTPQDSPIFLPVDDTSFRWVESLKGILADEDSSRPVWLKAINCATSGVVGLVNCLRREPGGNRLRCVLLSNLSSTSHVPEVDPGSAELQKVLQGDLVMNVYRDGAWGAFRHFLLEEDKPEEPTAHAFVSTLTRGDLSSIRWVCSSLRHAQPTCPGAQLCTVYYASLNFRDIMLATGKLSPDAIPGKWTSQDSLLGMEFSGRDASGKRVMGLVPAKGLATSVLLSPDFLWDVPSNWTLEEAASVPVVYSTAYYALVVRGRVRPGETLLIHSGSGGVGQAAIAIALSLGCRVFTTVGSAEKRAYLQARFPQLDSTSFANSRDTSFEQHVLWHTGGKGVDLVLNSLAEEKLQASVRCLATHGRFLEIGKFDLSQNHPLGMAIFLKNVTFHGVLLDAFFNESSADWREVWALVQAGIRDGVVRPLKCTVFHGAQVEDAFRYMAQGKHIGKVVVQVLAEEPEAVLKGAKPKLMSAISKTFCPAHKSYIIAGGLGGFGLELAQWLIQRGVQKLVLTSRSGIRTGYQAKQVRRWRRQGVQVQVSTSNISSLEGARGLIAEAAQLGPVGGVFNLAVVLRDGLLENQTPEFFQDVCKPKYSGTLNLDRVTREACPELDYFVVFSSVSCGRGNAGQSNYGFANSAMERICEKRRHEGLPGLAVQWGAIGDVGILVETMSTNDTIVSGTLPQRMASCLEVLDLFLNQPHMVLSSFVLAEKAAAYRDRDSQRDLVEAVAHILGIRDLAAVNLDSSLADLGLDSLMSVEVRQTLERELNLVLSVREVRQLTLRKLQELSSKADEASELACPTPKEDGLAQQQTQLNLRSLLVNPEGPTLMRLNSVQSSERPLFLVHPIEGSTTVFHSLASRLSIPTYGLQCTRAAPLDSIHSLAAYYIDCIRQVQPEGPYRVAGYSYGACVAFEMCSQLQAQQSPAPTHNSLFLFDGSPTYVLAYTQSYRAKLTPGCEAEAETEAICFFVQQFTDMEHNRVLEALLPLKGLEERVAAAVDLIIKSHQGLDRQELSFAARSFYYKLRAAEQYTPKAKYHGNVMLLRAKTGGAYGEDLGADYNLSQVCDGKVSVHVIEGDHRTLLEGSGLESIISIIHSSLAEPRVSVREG

IC50 (FASN enzyme) [nM]	IC50 (PC3 cells; [1]) [µM]	IC50 (PC3 cells; [2]) [µM]	Compound
< 500	< 0.5	–	O=C(c1ccc(-c2cc(F)c3[nH]ccc3c2)cc1F)N1CCN(C(=O)C2(O)CC2)CC1 [1-[(4-{[2-fluoro-4-(7-fluoro-1H-indol-5-yl)phenyl]carbonyl}piperazin-1-yl)carbonyl]cyclopropan-1-ol]
< 500	–	≥ 0.5	O=C(c1ccc(-c2cnc3ccccc3c2)cc1)N1CCN(C(=O)C2CCO2)CC1 (stereo not drawn) [3-[4-({4-[(oxetan-2-yl)carbonyl]piperazin-1-yl}carbonyl)phenyl]quinoline]
< 500	–	≥ 0.5	O=C(c1ccc(-c2ccc3[nH]ccc3c2)cc1)N1CCN(C(=O)C2CCO2)CC1 (stereo not drawn) [5-[4-({4-[(oxetan-2-yl)carbonyl]piperazin-1-yl}carbonyl)phenyl]-1H-indole]
< 500	< 0.5	–	O=C(c1ccc(-c2cccc(NS(=O)(=O)C3CC3)c2)cc1)N1CCN(C(=O)C2(O)CC2)CC1 [N-{3-[4-({4-[(1-hydroxycyclopropyl)carbonyl]piperazin-1-yl}carbonyl)phenyl]phenyl}cyclopropanesulfonamide]
< 500	< 0.5	–	O=C(c1ccc(-c2ccc3n[nH]nc3c2)cc1)N1CCN(C(=O)C2(O)CC2)CC1 [1-[(4-{[4-(2H-1,2,3-benzotriazol-5-yl)phenyl]carbonyl}piperazin-1-yl)carbonyl]cyclopropan-1-ol]
< 500	< 0.5	–	N#Cc1c[nH]c2ccc(-c3ccc(C(=O)N4CCN(C(=O)C5(O)CC5)CC4)cc3Cl)cc12
< 500	< 0.5	–	COc1ccc2cc(-c3ccc(C(=O)N4CCN(C(=O)C5(O)CC5)CC4)cc3)ccc2c1 [1-[(4-{[4-(6-methoxynaphthalen-2-yl)phenyl]carbonyl}piperazin-1-yl)carbonyl]cyclopropan-1-ol]
< 500	< 0.5	–	O=C(c1ccc(-c2ccc3c(ccn3C(F)(F)F)c2)c(Cl)c1)N1CCN(C(=O)C2(O)CC2)CC1 [1-{[4-({3-chloro-4-[1-(trifluoromethyl)-1H-indol-5-yl]phenyl}carbonyl)piperazin-1-yl]carbonyl}cyclopropan-1-ol]
< 500	< 0.5	–	N#Cc1cc2cc(-c3ccc(C(=O)N4CCN(C(=O)C5(O)CC5)CC4)cc3)ccc2[nH]1 [5-[4-({4-[(1-hydroxycyclopropyl)carbonyl]piperazin-1-yl}carbonyl)phenyl]-1H-indole-2-carbonitrile]
< 500	< 0.5	–	O=C(c1ccc(-c2n[nH]c3ccccc23)cc1)N1CCN(C(=O)C2(O)CC2)CC1 [1-[(4-{[4-(1H-indazol-3-yl)phenyl]carbonyl}piperazin-1-yl)carbonyl]cyclopropan-1-ol]
< 500	< 0.5	–	COc1nc2ccccc2cc1-c1ccc(C(=O)N2CCN(C(=O)C3(O)CC3)CC2)c(F)c1 [1-[(4-{[2-fluoro-4-(2-methoxyquinolin-3-yl)phenyl]carbonyl}piperazin-1-yl)carbonyl]cyclopropan-1-ol]
< 500	< 0.5	–	Cn1c(-c2ccc(C(=O)N3CCN(C(=O)C4(O)CC4)CC3)cc2)cc2ccccc21 [1-[(4-{[4-(1-methyl-1H-indol-2-yl)phenyl]carbonyl}piperazin-1-yl)carbonyl]cyclopropan-1-ol]
< 500	< 0.5	–	O=C(c1ccc(-c2nccc3ccccc23)cc1)N1CCN(C(=O)C2(O)CC2)CC1 [1-[(4-{[4-(isoquinolin-1-yl)phenyl]carbonyl}piperazin-1-yl)carbonyl]cyclopropan-1-ol]
< 500	< 0.5	–	O=C(c1ccc(-c2cnc3ccccc3c2)cc1F)N1CCN(C(=O)C2(O)CC2)CC1 [1-[(4-{[2-fluoro-4-(quinolin-3-yl)phenyl]carbonyl}piperazin-1-yl)carbonyl]cyclopropan-1-ol]
< 500	< 0.5	–	O=C(c1ccc(-c2cccc3[nH]cnc23)cc1)N1CCN(C(=O)C2(O)CC2)CC1 [1-[(4-{[4-(1H-1,3-benzodiazol-4-yl)phenyl]carbonyl}piperazin-1-yl)carbonyl]cyclopropan-1-ol]
< 500	< 0.5	–	O=C(c1ccc(-c2ccc3ncccc3c2)cc1Cl)N1CCN(C(=O)C2(O)CC2)CC1 [1-[(4-{[2-chloro-4-(quinolin-6-yl)phenyl]carbonyl}piperazin-1-yl)carbonyl]cyclopropan-1-ol]
< 500	< 0.5	–	Cn1cnc2cc(-c3ccc(C(=O)N4CCN(C(=O)C5(O)CC5)CC4)cc3)ccc21 [1-[(4-{[4-(1-methyl-1H-1,3-benzodiazol-5-yl)phenyl]carbonyl}piperazin-1-yl)carbonyl]cyclopropan-1-ol]
< 500	–	≥ 0.5	COc1cc(-n2cccn2)ccc1-c1ccc(C(=O)N2CCN(C(=O)C3(O)CC3)CC2)cc1
< 500	< 0.5	–	O=C(c1ccc(-c2cc3ccccc3[nH]c2=O)cc1)N1CCN(C(=O)C2(O)CC2)CC1 [3-[4-({4-[(1-hydroxycyclopropyl)carbonyl]piperazin-1-yl}carbonyl)phenyl]-1,2-dihydroquinolin-2-one]
< 500	< 0.5	–	O=C(c1ccc(-c2ccc3ccccc3n2)c(F)c1F)N1CCN(C(=O)C2(O)CC2)CC1 [1-[(4-{[2,3-difluoro-4-(quinolin-2-yl)phenyl]carbonyl}piperazin-1-yl)carbonyl]cyclopropan-1-ol]
< 500	< 0.5	–	Cc1nn(C)c2ccc(-c3ccc(C(=O)N4CCN(C(=O)C5(O)CC5)CC4)cc3)cc12 [1-[(4-{[4-(1,3-dimethyl-1H-indazol-5-yl)phenyl]carbonyl}piperazin-1-yl)carbonyl]cyclopropan-1-ol]
< 500	–	≥ 0.5	O=C(c1ccc(-c2ccc(Cl)cc2Cl)cc1)N1CCN(C(=O)C2(O)CC2)CC1 [1-[(4-{[4-(2,4-dichlorophenyl)phenyl]carbonyl}piperazin-1-yl)carbonyl]cyclopropan-1-ol]
< 500	< 0.5	–	O=C(c1ccc(-c2ccc3ncccc3c2)c(Cl)c1)N1CCN(C(=O)C2(O)CC2)CC1 [1-[(4-{[3-chloro-4-(quinolin-6-yl)phenyl]carbonyl}piperazin-1-yl)carbonyl]cyclopropan-1-ol]
< 500	< 0.5	–	O=C(c1ccc(-c2cc3ccccc3nc2O)cc1F)N1CCN(C(=O)C2(O)CC2)CC1 [3-[3-fluoro-4-({4-[(1-hydroxycyclopropyl)carbonyl]piperazin-1-yl}carbonyl)phenyl]quinolin-2-ol]
< 500	< 0.5	–	O=C(c1ccc(-c2ccc3[nH]ccc3c2)cc1)N1CCN(C(=O)C2(O)CC2)CC1 [1-[(4-{[4-(1H-indol-5-yl)phenyl]carbonyl}piperazin-1-yl)carbonyl]cyclopropan-1-ol]
< 500	< 0.5	–	O=C(c1ccc(-c2nc3cc(F)ccc3o2)cc1)N1CCN(C(=O)C2(O)CC2)CC1 [1-[(4-{[4-(5-fluoro-1,3-benzoxazol-2-yl)phenyl]carbonyl}piperazin-1-yl)carbonyl]cyclopropan-1-ol]
< 500	< 0.5	–	O=C(c1ccc(-c2ccc3[nH]cnc3c2)cc1)N1CCN(C(=O)C2(O)CC2)CC1 [1-[(4-{[4-(1H-1,3-benzodiazol-5-yl)phenyl]carbonyl}piperazin-1-yl)carbonyl]cyclopropan-1-ol]
